Assay results taken from patent US4863493A, “High purity acetylene gas” (Nichigo Acetylene Kabushiki Kaisha, priority 1987, dated 1989).

Columns and labels:
[1] = in DMF, at 25° C.; data from catalogue of NITTO CHEMICAL INDUSTRY CO., LTD.; cited from earlier work
[2] = Acetylene stripped from DMF saturated with acetylene on heating; assay type: physicochemical; conditions: heated to 0° C.
From the text: The amount of acetylene dissolved in a solvent depends on the temperature of the solvent. Usually increasing the temperature tends to decrease the solubility. […] As mentioned above, the terminology "stripped acetylene" is intended to refer to "acetylene stripped from a solvent".

Compound: C#C [C2 H2, acetylene]
- Solubility [1]: 31.4 l/l
- acetylene at S.T.P. stripped from 1 l of DMF ([2]; DMF saturated with acetylene at -40° C.): about 238 l
- acetylene at S.T.P. stripped from 1 l of DMF ([2]; DMF saturated with acetylene at -60° C.): about 382 l

Compound: O=C=O [CO2, carbon dioxide]
- Solubility [1]: 4.5 l/l

Compound: [C-]#[O+] [CO]
- Solubility [1]: 0.06 l/l

Compound: [HH] [H2, hydrogen]
- Solubility [1]: 0.04 l/l
